Results on 3 molecules are retold here after patent US20070270612A1, “Biocidal azole emulsion concentrates having high active ingredient content” (priority 2006, published 2007).

Where two headings read alike, the source gives them in different places.

The nature of series [1]: Solubility of biocides in solvents. It counts as physicochemical. The text has this:
For example, Arch Wood Protection recently received US EPA registration on an end use wood preservative product having 5.0% tebuconazole, 5.0% propiconazole, 0.5% imidacloprid, and 89.5% inert ingredients (surfactants, etc). This is near the solubility limit of the carrier, that is, very little additional biocidal azole can be dissolved in that material. This is about 20 parts biocidal azoles per part of imidacloprid. Other commercially importants formulations include tebuconazole and imidacloprid in a ratio of about 50 parts to 1 part by weight, and 4 parts biocidal azoles (tebuconazole and propiconazole) per part by weight of permethin. In contrast, an exemplary formulation of the present invention comprises 15.0% tebuconazole (range 1-35%, preferably 5-20%), 15.0% propiconazole (range 1-40%, preferably 5-20%), 1.5% imidacloprid (range 0.2%-3%), 5.0% of an emulsifier blend (range 1-15%), 60.0% of a basic solvent such as N,N-dimethyldecanamide/octanamide (range 0.0-65%), and 3.5% N-methyl pyrrolidone (range 0.0-50%). The alkyl pyrrolidones can be included in component (A) compounds if an organic biocide is particularly difficult to dissolve.
Other biocides which could be used in this invention include those in the azole family and other organic molecules in general (fungicides and insecticides) that are applicable to wood preservation. These could be combined in any number of mixtures and variations, including two-ways, four-ways, etc. or alone. A large number of surfactants that can be used as emulsifier components to make an EC. It really comes down to the formulator's preference. Similarly, there are many other solvents that could be used to dissolve these active ingredients and make an EC or microemulsion from an emulsion concentrate (MEC). When the compositions are diluted and undergo sufficient shear to form a microemulsion, the resultant microemulsion is stable at all reasonably useful levels of water dilution and remain thermodynamically stable and clear, opalescent, or only slightly cloudy. […]

The nature of series [2]: Particle size distribution on wet ball milling with 0.3 mm zirconia. It is filed as physicochemical. An excerpt: Milling tebuconazole with 0.3 mm zirconium oxide milling material. Tebuconazole is a preferred organic biocide for use in wood and also for selected foliar applications and for incorporation into biocidal materials. […] Exemplary other preferred biocides from the same class of material include cyproconazole, tetraconazole, difenoconazole, diniconazole, penconazole, imibenconazole, propiconazole, azaconazole, and epoxyconazole. […] A CB Mills Vertical Mill Model: L-1 mill was used in this experiment. […] The original d50 (the diameter at which 50% by weight of the particles have an effective diameter equal to or less than the d50) of the tebuconazole, prior to wet milling, was about 25 microns, with about a fourth of the tebuconazole in particles […] having a particle size less than 4 microns. The milling media was 0.3-0.5 mm Yttrium doped Zirconium Oxide. The density of the yttrium-doped zirconium oxide is ˜6.0 g/cm^3. […] Generally, for injecting into wood, we prefer less than 2% by weight of particles have a diameter greater than 1 micron, more preferably 0.7 microns. The residual large particles can be separated from the slurry by centrifugation and then be sent back to the mill for additional milling.

For the molecule `O=[N+]([O-])NC1=NCCN1Cc1ccc(Cl)nc1` [Imidacloprid], the “solubility in most every EPA approved solvent” value in series [1] is given as “sparingly soluble”.
With `CC(C)(C)C(O)(CCc1ccc(Cl)cc1)Cn1cncn1` (stereo not drawn) [Tebuconazole], the “solubility in N,N-dimethylcapramide” value in series [1] is on record as “very soluble”. Also, in series [2] (milling time 0 mins), the “Volume % With Diameter 1-10 μm” value is listed as 4 Volume %, the “Volume % With Diameter 10-25 μm” value turned out to be 42.2 Volume %, the “Volume % With Diameter 25-50 μm” value is 27.2 Volume % and the “Volume % With Diameter >50 μm” value is given as 26.6 Volume %. For the same molecule, in series [2] (milling time 150 mins), the “Volume % With Diameter 0.2-1 μm” value stood at 20.7 Volume %, the “Volume % With Diameter 1-10 μm” value worked out at 4.2 Volume %, the “Volume % With Diameter 10-25 μm” value is 3.6 Volume % and the “Volume % With Diameter 25-50 μm” value came out at 0 Volume %. In addition, in series [2] (milling time 150 mins), the “Volume % With Diameter <0.2 μm” value was 71.5 Volume % and the “Volume % With Diameter >50 μm” value is recorded as 0 Volume %. Further, in series [2] (prior to wet milling), the d50 entry is reported as “about 25 microns” and the “weight % having a particle size less than 4 microns” value is reported as “about 4 % by weight”.
As to `CCCC1COC(Cn2cncn2)(c2ccc(Cl)cc2Cl)O1` (stereo not drawn) [propiconazole], the “solubility in N,N-dimethylcapramide” value in series [1] (solvent N,N-DMC) is given as “very soluble”.
